Reference: patent US7008630B2, “Lipochroman-6 as NO-synthase inhibitor and uses” (L' Oreal, priority 2000, dated 2006)

Biological target: T1, inducible NO-synthase (NO-synthase 2) (Homo sapiens, UniProt P35228)
T1 construct: positive control (induction of the enzyme): mixtures of γ-interferon (1 000 U/ml) and interleukin-1β (100 U/ml); endogenous in cells
Test: Activity on inducible NO-synthase: decrease in nitrate and nitrite concentration after stimulation of NO-synthase 2 (test of Heck et al.)
Format: cell-based
Conditions: for % inhibition: induction with γ-interferon 1 000 U/ml and interleukin-1β 100 U/ml, nitrites and nitrates measured
Protocol: The activity of lipochroman-6 on inducible NO-synthase was evaluated in the test described by Heck et al. (J. B. C., Vol. 267, No. 30, 21277–21280, Oct. 25, 1992).
In order to determine the activity of the product to be tested, the amount of stable NO reaction products (nitrites and nitrates) is measured using the nitric calorimetric assay kit sold by the company Boehringer under the reference 1756.28.
The lipochroman-6 was tested at the concentrations of 0.005% and 0.01% (weight/volume) in ethanol.

T1 sequence (P35228 whole entry, species assumed): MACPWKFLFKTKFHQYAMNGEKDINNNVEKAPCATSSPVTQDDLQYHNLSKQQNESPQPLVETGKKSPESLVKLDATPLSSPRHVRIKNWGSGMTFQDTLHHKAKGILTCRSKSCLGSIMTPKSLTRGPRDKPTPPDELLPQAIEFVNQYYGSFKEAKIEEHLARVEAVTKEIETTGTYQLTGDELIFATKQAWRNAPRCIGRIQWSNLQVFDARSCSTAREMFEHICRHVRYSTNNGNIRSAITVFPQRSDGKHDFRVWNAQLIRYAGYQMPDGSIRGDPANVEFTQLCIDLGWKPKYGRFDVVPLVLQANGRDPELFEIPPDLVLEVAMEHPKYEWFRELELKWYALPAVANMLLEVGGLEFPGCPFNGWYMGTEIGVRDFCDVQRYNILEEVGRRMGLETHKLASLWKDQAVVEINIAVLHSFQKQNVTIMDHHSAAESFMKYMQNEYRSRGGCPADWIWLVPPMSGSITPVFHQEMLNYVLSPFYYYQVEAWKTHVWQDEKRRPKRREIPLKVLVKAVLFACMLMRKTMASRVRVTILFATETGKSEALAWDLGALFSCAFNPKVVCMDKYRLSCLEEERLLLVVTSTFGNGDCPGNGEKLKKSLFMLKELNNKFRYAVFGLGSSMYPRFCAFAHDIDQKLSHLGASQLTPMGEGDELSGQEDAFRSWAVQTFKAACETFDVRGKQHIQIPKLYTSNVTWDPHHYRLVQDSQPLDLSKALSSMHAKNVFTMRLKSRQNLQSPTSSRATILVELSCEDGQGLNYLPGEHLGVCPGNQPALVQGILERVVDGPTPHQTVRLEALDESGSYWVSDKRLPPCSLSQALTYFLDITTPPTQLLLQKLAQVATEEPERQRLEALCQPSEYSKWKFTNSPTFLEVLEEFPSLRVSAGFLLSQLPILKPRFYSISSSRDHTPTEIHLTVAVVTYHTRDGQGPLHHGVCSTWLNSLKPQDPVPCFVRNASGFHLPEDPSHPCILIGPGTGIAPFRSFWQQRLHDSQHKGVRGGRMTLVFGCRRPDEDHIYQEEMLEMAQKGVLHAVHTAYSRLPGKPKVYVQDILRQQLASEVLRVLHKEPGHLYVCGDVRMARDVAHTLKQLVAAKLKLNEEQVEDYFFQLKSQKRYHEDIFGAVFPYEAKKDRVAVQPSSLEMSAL

COc1cc2c(cc1O)CCC(C)(C)O2 [Lipochroman-6, lipochroman-6]
effect on inducible NO-synthase (in words): inhibitory effect
% inhibition (lipochroman-6 at 0.005% (weight/volume) in ethanol): 38%
% inhibition (lipochroman-6 at 0.01% (weight/volume) in ethanol): 95%
